In article PMC12005787, “Synthetic Lethality of SHP2 and XIAP Suppresses Proliferation and Metastasis in KRAS‐mutant Nonsmall Cell Lung Cancer” (Advanced Science, 2025):

Columns and labels:
Experiment in all cases: PTPs activity assay (DiFMUP)
Assay type in all cases: biochemical
HePTP = target: T1, HePTP (Homo sapiens, UniProt P35236)
T1 construct: His; made in house; host or cells: E. coli
T1 sequence (P35236 1-360): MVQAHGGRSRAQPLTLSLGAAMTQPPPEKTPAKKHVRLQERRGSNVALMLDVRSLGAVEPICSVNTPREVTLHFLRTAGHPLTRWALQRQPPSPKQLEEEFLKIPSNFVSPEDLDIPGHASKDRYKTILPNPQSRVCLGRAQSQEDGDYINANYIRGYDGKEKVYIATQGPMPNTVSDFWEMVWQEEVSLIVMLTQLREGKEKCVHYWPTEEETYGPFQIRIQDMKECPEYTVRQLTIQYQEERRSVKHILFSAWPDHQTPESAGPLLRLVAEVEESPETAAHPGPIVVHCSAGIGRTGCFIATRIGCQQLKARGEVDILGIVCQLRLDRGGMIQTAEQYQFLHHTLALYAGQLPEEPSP

PTP1B = target: T2, PTP1B (Homo sapiens, UniProt P18031); details: read-out: IC50 of PTPs PTP1B
T2 construct: His; made in house; host or cells: E. coli
T2 sequence (P18031 1-435): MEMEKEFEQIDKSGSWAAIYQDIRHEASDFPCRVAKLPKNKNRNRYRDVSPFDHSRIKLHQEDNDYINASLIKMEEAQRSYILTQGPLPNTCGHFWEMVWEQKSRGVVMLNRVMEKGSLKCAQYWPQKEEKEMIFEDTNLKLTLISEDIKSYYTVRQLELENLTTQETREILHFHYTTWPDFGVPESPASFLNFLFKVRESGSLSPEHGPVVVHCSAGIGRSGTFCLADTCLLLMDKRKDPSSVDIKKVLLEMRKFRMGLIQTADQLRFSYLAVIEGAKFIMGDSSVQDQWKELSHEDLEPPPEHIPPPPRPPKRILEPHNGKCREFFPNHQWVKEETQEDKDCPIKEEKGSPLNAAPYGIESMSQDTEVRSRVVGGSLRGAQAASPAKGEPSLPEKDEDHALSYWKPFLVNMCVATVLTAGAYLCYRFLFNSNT

ΔSHP1 = target: T3, ΔSHP1 (Homo sapiens, UniProt P29350)
T3 construct: His‐ΔSHP1, encompassing the peptide from amino acids 202–595 retaining PTP activity; His; made in house; host or cells: E. coli
T3 sequence (P29350 202-595, stated change not applied): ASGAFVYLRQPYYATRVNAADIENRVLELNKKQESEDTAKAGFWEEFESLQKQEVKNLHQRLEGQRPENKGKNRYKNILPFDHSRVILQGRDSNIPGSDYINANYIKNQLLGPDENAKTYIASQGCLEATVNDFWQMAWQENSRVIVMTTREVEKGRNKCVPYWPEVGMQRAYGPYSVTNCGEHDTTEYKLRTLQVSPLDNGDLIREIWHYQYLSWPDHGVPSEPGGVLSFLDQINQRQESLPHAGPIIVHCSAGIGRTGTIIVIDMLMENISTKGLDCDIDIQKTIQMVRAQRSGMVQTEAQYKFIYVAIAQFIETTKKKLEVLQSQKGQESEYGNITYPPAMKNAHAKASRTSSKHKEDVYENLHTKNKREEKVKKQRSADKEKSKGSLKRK

VHR = target: T4, VHR (Homo sapiens, UniProt P51452)
T4 construct: His; made in house; host or cells: E. coli
T4 sequence (P51452 whole entry): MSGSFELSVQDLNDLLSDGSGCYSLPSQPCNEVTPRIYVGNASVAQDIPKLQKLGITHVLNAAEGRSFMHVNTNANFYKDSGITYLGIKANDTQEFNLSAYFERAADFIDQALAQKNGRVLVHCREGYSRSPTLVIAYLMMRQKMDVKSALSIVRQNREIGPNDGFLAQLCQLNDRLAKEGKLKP

ΔSHP2 = target: T5, ΔSHP2 (Homo sapiens, UniProt Q06124)
T5 construct: His‐ΔSHP2, encompassing the peptide from amino acids 205–593 retaining PTP activity; His; made in house; host or cells: E. coli
T5 sequence (Q06124 205-593): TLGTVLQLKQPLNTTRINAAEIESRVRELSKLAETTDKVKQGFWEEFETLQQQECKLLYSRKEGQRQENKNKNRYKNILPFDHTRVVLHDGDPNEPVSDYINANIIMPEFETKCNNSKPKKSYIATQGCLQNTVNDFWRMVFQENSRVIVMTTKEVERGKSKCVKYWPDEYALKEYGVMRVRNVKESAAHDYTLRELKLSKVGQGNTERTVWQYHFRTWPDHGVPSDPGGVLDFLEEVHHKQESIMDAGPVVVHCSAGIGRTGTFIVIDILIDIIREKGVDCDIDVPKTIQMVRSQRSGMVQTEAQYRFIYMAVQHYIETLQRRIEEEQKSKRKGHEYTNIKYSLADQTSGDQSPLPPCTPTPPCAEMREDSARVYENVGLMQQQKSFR

Structure (SMILES)	IC50 (HePTP)	IC50 (PTP1B)	IC50 (ΔSHP1)	IC50 (VHR)	IC50 (ΔSHP2)
CCCCCCCCCCCC1=C(O)C(=O)C=C(O)C1=O [Embelin]	> 200 µM	> 200 µM	> 200 µM	> 200 µM	10.5 µM
O=C1Nc2ccc(I)cc2/C1=C/c1cc(Br)c(O)c(Br)c1 [S2872, GW5074]	472 µM	110 µM	246 µM	131 µM	33.8 µM
